Measurements: patent US6703349B2, “Enhanced herbicide composition” (Valent BioSciences Corporation, priority 2001, dated 2004)

What was measured:
Tobacco = test: Greenhouse spray test, phytotoxicity/herbicidal effect and re-growth rating on tobacco; assay type: in vivo, Nicotiana tabacum (tobacco); as to 8 day phytotoxicity Rating (1 = least damage, 5 = most): COC 0.25% (v/v); as to 9 day phytotoxicity Rating (1 = least damage, 5 = most): COC 0.25% (v/v)
Experimental: (§1) Ultra pure water was used in preparing solutions. For active ingredients (e.g. lactofen or flumioxazin), the active ingredient was dissolved in a small amount of solvent (dimethyl sulfoxide (DMSO) or 1-methyl-2-pyrrolidone), and then water was added. Spray solutions were used as soon as possible after mixing.
(§2) COC in water was used as the control.
(§3) After spraying, plants were allowed to dry at room temperature (about 25° C.). They were then moved to the greenhouse, and plants were arranged in a randomized complete block experimental design. Plants were evaluated for phytotoxicity/herbicidal effects at 24 hours and 7 to 9 days after spraying, assessing damage according to the following scale:
(§4) 5=100% leaf area affected
(§5) Plants were rated for re-growth at 7 to 9 days after treatment according to the following scale:
(§6) 2=75% of control regrowth
(§7) 3=50% of control regrowth
(§8) All the data were subject to an analysis of variance, and the mean separations were determined with Duncan's multiple range test at p=0.05.

Pigweed = test: Greenhouse spray test, phytotoxicity rating on pigweed; assay type: in vivo, Amaranthus retroflexus (red root pigweed); as to 24 hour phytotoxicity Rating (1 = least damage, 5 = most): COC 0.25% (v/v); as to 9 day phytotoxicity Rating (1 = least damage, 5 = most): COC 0.25% (v/v)
Experimental: as §1, §2, §3, §4, §8

Soybean = test: Greenhouse spray test, phytotoxicity/herbicidal effect and re-growth rating on soybean; assay type: in vivo, Glycine max (soybean); as to 24 hour phytotoxicity Rating (1 = least damage, 5 = most): COC 0.25% (v/v); as to 8 day phytotoxicity Rating (1 = least damage, 5 = most): COC 0.25% (v/v)
Experimental: as §1, §2, §3, §4, §5, §6, §7, §8

Morning glory = test: Greenhouse spray test, phytotoxicity rating on morning glory; assay type: in vivo; as to 24 hour phytotoxicity Rating (1 = least damage, 5 = most): COC 0.25% (v/v)
Experimental: as §1, §2, §3, §4, §8

Giant Foxtail = test: Greenhouse spray test, phytotoxicity/herbicidal effect and re-growth rating on giant foxtail; assay type: in vivo, Setaria faberi (giant foxtail)
Experimental: as §1, §2, §3, §4, §5, §6, §7, §8

Waterhemp = test: Greenhouse spray test, phytotoxicity/herbicidal effect and re-growth rating on waterhemp; assay type: in vivo, Amaranthus rudis (water hemp)
Lambsquarter = test: Greenhouse spray test, phytotoxicity/herbicidal effect and re-growth rating on lambsquarter; assay type: in vivo, Chenopodium album (lambsquarter)
Experimental: as §1, §2, §3, §4, §5, §6, §7, §8

Burley tobacco = test: Field test, phytotoxicity (percent leaf area affected) on Burley tobacco; assay type: in vivo; conditions: Burley tobacco in the field; apparent 1 day after application, persisted until day 7; summary of Table 6
Cocklebur = test: Greenhouse spray test, phytotoxicity/herbicidal effect and re-growth rating on cocklebur; assay type: in vivo, Xanthrum strumarium (cocklebur)
Experimental: as §1, §2, §3, §4, §5, §6, §7, §8

[1] = Table 4, 24 hour, NaSA 1.6 g/L, Cobra 0.124 mL/L, Flumioxazin […], COC […] (v/v)
[2] = Table 4, 9 day, NaSA 1.6 g/L, Cobra 0.124 mL/L, Flumioxazin […], COC […] (v/v)
[3] = Table 2, 24 hour, NaSA 1.6 g/L, Cobra 0.124 mL/L, Lactofen 0.030 g/L, COC […] (v/v)
[4] = Table 2, 8 day, NaSA 1.6 g/L, Cobra 0.124 mL/L, Lactofen 0.030 g/L, COC […] (v/v)
[5] = Table 1, 8 day, NaSA 1.6 g/L, Cobra 0.124 mL/L, COC […] (v/v)
[6] = Table 2, 8 day, NaSA 8.0 g/L, COC […] (v/v)
[7] = added to Cobra, summary of Table 1

C#CCN1C(=O)COc2cc(F)c(N3C(=O)C4=C(CCCC4)C3=O)cc21 [Flumioxazin, flumioxazin]
24 hour phytotoxicity Rating (1 = least damage, 5 = most) (Tobacco; [1]): 3.7
9 day phytotoxicity Rating (1 = least damage, 5 = most) (Tobacco; [2]): 5.0
24 hour phytotoxicity Rating (1 = least damage, 5 = most) (Pigweed; [1]): 4.2
9 day phytotoxicity Rating (1 = least damage, 5 = most) (Pigweed; [2]): 5.0

CCOC(=O)C(C)OC(=O)c1cc(Oc2ccc(C(F)(F)F)cc2Cl)ccc1[N+](=O)[O-] (centres unmarked) [Lactofen, lactofen]
24 hour phytotoxicity Rating (1 = least damage, 5 = most) (Soybean; [3]): 2.4
8 day new growth rating (1 = healthy new growth, 5 = no new growth) (Soybean; [4]): 2.6
8 day phytotoxicity Rating (1 = least damage, 5 = most) (Soybean; [4]): 2.7
24 hour phytotoxicity Rating (1 = least damage, 5 = most) (Tobacco; [3]): 3.1
8 day new growth rating (1 = healthy new growth, 5 = no new growth) (Tobacco; [4]): 5.0
8 day phytotoxicity Rating (1 = least damage, 5 = most) (Tobacco; [4]): 4.2
24 hour phytotoxicity Rating (1 = least damage, 5 = most) (Morning glory; Table 3, 24 hour, NaSA 1.6 g/L, Cobra 0.124 mL/L, Lactofen 0.030 g/L, COC […] (v/v)): 3.3

O=C([O-])c1ccccc1O.[Na+] [NaSA, sodium salicylate]
8 day new growth rating (1 = healthy new growth, 5 = no new growth) (Soybean; [5]): 1.2
8 day new growth rating (1 = healthy new growth, 5 = no new growth) (Soybean; [4]): 2.0
8 day new growth rating (1 = healthy new growth, 5 = no new growth) (Soybean; [6]): 4.2
Synergism of Cobra activity by addition of salicylate (in words) (Soybean; [7]): not
Safening: effect of salicylate on herbicide-induced damage (in words) (Soybean; summary of Table 1): decrease and delay herbicide-induced damage
8 day new growth rating (1 = healthy new growth, 5 = no new growth) (Giant Foxtail; [5]): 1.0
Synergism of Cobra activity by addition of salicylate (in words) (Giant Foxtail; [7]): not
8 day new growth rating (1 = healthy new growth, 5 = no new growth) (Waterhemp; [5]): 1.0
Synergism of Cobra activity by addition of salicylate (in words) (Waterhemp; [7]): not
8 day new growth rating (1 = healthy new growth, 5 = no new growth) (Tobacco; [5]): 1.0
8 day new growth rating (1 = healthy new growth, 5 = no new growth) (Tobacco; [4]): 1.2
8 day new growth rating (1 = healthy new growth, 5 = no new growth) (Tobacco; [6]): 4.5
Synergism of Cobra activity by addition of salicylate (in words) (Tobacco; [7]): synergized
Effect of salicylate on flumioxazin activity (in words) (Tobacco; added to flumioxazin, summary of Table 4): increase flumioxazin activity
Effect of salicylate on lactofen activity (in words) (Tobacco; added to lactofen, summary of Table 2): increase lactofen activity
8 day new growth rating (1 = healthy new growth, 5 = no new growth) (Lambsquarter; [5]): 1.0
Synergism of Cobra activity by addition of salicylate (in words) (Lambsquarter; [7]): synergized
Effect of salicylate on herbicidal activity of Cobra (in words) (Morning glory; added to Cobra, summary of Table 3): increases the herbicidal activity
Effect of salicylate on herbicidal activity of lactofen (in words) (Morning glory; added to lactofen, summary of Table 3): increases the herbicidal activity
Effect of addition of salicylate on Phoenix (lactofen) herbicidal activity (in words) (Burley tobacco): increased
Effect of salicylate on Cobra herbicidal activity (in words) (Pigweed; added to Cobra, effect not statistically significant, summary of Table 4): increased
Effect of salicylate on flumioxazin herbicidal activity (in words) (Pigweed; added to flumioxazin, effect not statistically significant, summary of Table 4): increased
8 day new growth rating (1 = healthy new growth, 5 = no new growth) (Cocklebur; [5]): 1.0
Synergism of Cobra activity by addition of salicylate (in words) (Cocklebur; [7]): not
